# According to PMC8607110, “Pyrazole Derivatives Induce Apoptosis via ROS Generation in the Triple Negative Breast Cancer Cells, MDA-MB-468” (Asian Pacific Journal of Cancer Prevention : APJCP, 2021):
# Where “and” joins values, the source holds several entries; their conditions need not be identical. Equal values may be shown once. Read-outs that look alike come from different tables or passages of the source.
# Tests used:
# AGO1522 cells = assay: MTT cell viability assay, AGO1522 normal fibroblasts; format: cell-based; conditions: Homo sapiens, Fibroblast, mean ± SD of triplicate
# Description: (§1) The MDA-MB-468 cells were maintained in DMEM/Ham’s F12 supplemented with L-glutamine, with 10% fetal bovine serum and 1% penicillin/streptomycin. The AGO1522 cell line was cultured in DMEM/Low Glucose, with 10% fetal bovine serum and 1% penicillin/ streptomycin. Cells were incubated at 37°C, 5% CO2 and every 2-3 days at the confluency of 80%, the cells were harvested from the culture flask by Trypsin-EDTA.
# (§2) Cell viability was measured with the MTT assay. The reduction of the tetrazolium salt, to a blue formazan crystal is facilitated by mitochondrial dehydrogenase and NADPH-dependent cellular oxidoreductase enzymes (Abel and Baird, 2018). In the assay, an aliquot of 7.5 × 10^3 cells was seeded on the 96-well plates and allowed to attach overnight. Then, 11 Pyrazole derivatives (as shown in Table 1 and Figure S1) were added to the desired well with the final concentration of 3, 6.25, 12.5, 25, 50, 100 μM. After pre-treating cells for 24 and 48h, MTT (5 mg/ml in PBS) was added to each well and the cells were incubated for another 4 h at 37°C. In order to dissolve blue-colored formazan crystals, the entire medium was aspirated after the incubation period, and DMSO was added to the wells. An ELISA plate reader (BioTek Instruments, Inc., USA) was used to quantify the formazan concentration (with the wavelengths of 570 nm). All of the experiments were carried out on three replicates to ensure the measurement repeatability and the IC50 values were also calculated using GraphPad Prism software.
# MDA-MB-468 cells [1] = assay: MTT cell viability assay, MDA-MB-468; format: cell-based, human; conditions: mean ± SD of triplicate
# Description: as §1, §2
# 5637 cells = tested on: 5637 cells; set-up: method as in Tessmann et al., 2017; conditions: human bladder cancer cell line; ref Tessmann et al., 2017; cited from earlier work
# MDA-MB-468 cells [2] = assay: Cell cycle analysis by PI staining and flow cytometry; format: cell-based, human; conditions: 14.97 μM, 24 h
# Description: Cell cycle analysis was conducted through taking advantage of PI staining and flow cytometry analysis. To evaluate cellular DNA levels, the cells stained with PI were subjected to ﬂow cytometric analyses. In this assay, six-well plates were loaded with 2 × 10^5 MDA-MB-468 cells / well. After incubation of the samples at 37°C for 24 h, cells were treated with 3f at concentrations of 14.7 μM followed 24 h incubation. Then, the effect of the drug became evident and cells collected by rinsing with PBS (two times), immobilizing with 70% ice-cold ethanol (for 3 h), and washing with PBS (two times). To resuspend the cells a mixture of 0.25 ml PBS containing 5 μl of 10 mg/ml RNase A and Triton X-100 (0.1%) including 10μl of PI (50 μg/ml) was used and incubation was performed at 37°C for 30 min in a dark place. The assessment of stain cells was carried out employing a FACS Calibur flow cytometer (BD Biosciences, San Jose, CA). The apoptotic rate of the cell population was measured by calculating the percentage of cells with sub-G1 DNA content.
# MDA-MB-468 cells [3] = assay: Annexin V-FITC/PI apoptosis detection by flow cytometry; format: cell-based, human; conditions: 14.97 µM, 24 h, MDA-MB-468, compared with untreated cells
# Description: Annexin V-FITC/PI Apoptosis Detection Kit was employed to detect apoptosis. To assess the number of apoptotic cells, an aliquot of MDA-MB-468 cells was adjusted to obtain 2 × 10^5 cells per well in six-well plates followed by incubation for an overnight. After incubation cells on the surface for an appropriate time, compound 3f was added to the wells to obtain the final concentration of 14.7μM in wells for 24 h. Cells were then harvested from the culture wells by aspirating media and washing with ice-cold PBS. Once the cells have detached, resuspended cells were pipetted up and down thoroughly followed by transferring to a sterilized 5 ml centrifuge tube. After 15min, 400 µl of the binding buffer was added to the cell suspension. Then annexin V-FITC and PI staining solution were added to the tubes. The cell suspension was then placed in a dark place (10 min at room temperature). A flow cytometer (BD Biosciences, San Jose, CA) was used to analyze the cells. The analysis of data was made using FlowJo software.
# [4] = tested on: caspase-3 in MDA-MB-468 cells; assay: Caspase-3 activity, DEVD-AFC fluorometric assay; format: cell-based, human; conditions: 14.97 μM, 24 h, MDA-MB-468, vs untreated
# Description: From a mechanistic point of view, caspase 3 as a member of the cysteine-aspartic protease family is essential for a variety of biological activities, including apoptosis in mammalian cells (Skiba et al., 2019). To confirm the drug triggers apoptosis, the level of 7-amino-4-trifluoromethyl-coumarin (AFC) from DEVD-AFC, a marker of caspase 3 activation, was measured using Caspase-3/CPP32 Fluorometric Assay Kit (BioVision Research Products, Mountain View, CA, USA). Briefly, MDA-MB-468 cells (a density of 7.5 × 10^3 per well in 96-wells plate) were treated with 14.97 μM 3f for 24 h. The following day, cells were collected, washed two times in PBS and lysed in lysis buffer (for 10 min on ice). The concentration of protein was assessed and 50 µL of supernatant containing 50-200 µg protein was added to the 50 µL of 2x reaction buffer and 5 μl of DEVD-AFC substrate (1 mM), in a 96-wells plate. The mixture was then left at 37°C for 2 hours followed by monitoring the fluorescence intensity using a fluorescent microplate reader (BioTek Synergy HT, Winooski, VT, USA).
# MDA-MB-468 cells [5] = assay: Intracellular ROS detection with DCFH-DA; format: cell-based, human; conditions: 14.97 μM, 24 h, MDA-MB-468, DCFH-DA fluorimetry, vs untreated
# Description: The level of intracellular ROS corresponded to the MDA-MB-468 cells in response to the 3f compound was monitored by using DCFH-DA. Briefly, 7.5 × 10^3 MDA-MB-468 cells were seeded per well of 96-wells plate and allowed to attach to the bottom of the wells for an overnight followed by treatment with 3f compound at a concentration of 14.7 μM. After incubation of cells for 24 h, PBS was used for rinsing and then cells incubated in the presence of DCFH-DA for 30 min at 37°C. Next, to remove the extracellular DCFH-DA, cells were washed three times with prechilled PBS. Finally, the fluorescent of collected cells was analyzed by using a fluorescent microplate reader (BioTek Synergy HT, Winooski, VT, USA).
# [6] = 24 h treatment, read-out: IC50, AGO1522, 24 hours
# [7] = 48 h treatment, read-out: IC50, AGO1522, 48 hours
# [8] = Homo sapiens, MDA-MB-468, 24 h, 24 h treatment, read-out: IC50, MDA-MB-468, 24 hours
# [9] = Homo sapiens, MDA-MB-468, 48 h, 48 h treatment, read-out: IC50, MDA-MB-468, 48 hours
structure (smiles),measurement,setting,value
"COc1ccc(-c2cc(-c3cc(OC)c(OC)c(OC)c3)n(-c3ccc(F)cc3)n2)cc1 [4d, 1-(4-fluorophenyl)-3-(4-methoxyphenyl)-5-(3,4,5-trimethoxyphenyl)-1H-Pyrazole]",IC50,AGO1522 cells; [6],34.4 ± 1.31 µM
same,IC50,AGO1522 cells; [7],27.3 ± 0.94 µM
same,IC50,MDA-MB-468 cells [1]; [8],58.6 ± 1.32 µM
same,IC50,MDA-MB-468 cells [1]; [9],24.5 ± 1.17 µM
"COc1cc(-c2cc(-c3ccccc3)nn2-c2ccccc2)cc(OC)c1OC [4a, 1,3-diphenyl-5-(3,4,5-trimethoxyphenyl)-1H-Pyrazole]",IC50,AGO1522 cells; [6],31.2 ± 1.24 µM
same,IC50,AGO1522 cells; [7],14.5 ± 0.97 µM
same,IC50,MDA-MB-468 cells [1]; [8],19.4 ± 1.14 µM
same,IC50,MDA-MB-468 cells [1]; [9],11 ± 0.88 µM
"CC(=O)O[C@H]1C(=O)[C@@]2(C)[C@H]([C@H](OC(=O)c3ccccc3)[C@]3(O)C[C@H](OC(=O)[C@H](O)[C@@H](NC(=O)c4ccccc4)c4ccccc4)C(C)=C1C3(C)C)[C@]1(OC(C)=O)CO[C@@H]1C[C@@H]2O [Paclitaxel, reference compound]",IC50,AGO1522 cells; [6],42.9 ± 1.42 µM
same,IC50,AGO1522 cells; [7],22.6 ± 0.91 µM
same,IC50,MDA-MB-468 cells [1]; [8],49.9 ± 0.97 µM
same,IC50,MDA-MB-468 cells [1]; [9],25.2 ± 1.27 µM
"COc1cc(C2CC(c3ccccc3)=NN2c2ccc(C)cc2)cc(OC)c1OC (stereo not shown) [3b, 3-phenyl-1-(p-tolyl)-5-(3,4,5-trimethoxyphenyl)-4,5-dihydro-1H-Pyrazole]",IC50,AGO1522 cells; [6],29.8 ± 1.02 µM
same,IC50,AGO1522 cells; [7],19.8 ± 0.96 µM
same,IC50,MDA-MB-468 cells [1]; [8],19.2 ± 0.97 µM
same,IC50,MDA-MB-468 cells [1]; [9],9.29 ± 0.67 µM
"COc1cc(C2CC(c3ccccc3)=NN2c2ccc(F)cc2)cc(OC)c1OC (stereo not shown) [3d, 1-(4-fluorophenyl)-3-phenyl-5-(3,4,5-trimethoxyphenyl)-4,5-dihydro-1H-Pyrazole]",IC50,AGO1522 cells; [6],42.1 ± 1.27 µM
same,IC50,AGO1522 cells; [7],35.6 ± 1.32 µM
same,IC50,MDA-MB-468 cells [1]; [8],32.6 ± 1.22 µM
same,IC50,MDA-MB-468 cells [1]; [9],15.2 ± 0.9 µM
"NC(=S)N1N=C(c2ccccc2)CC1c1ccc(Cl)cc1 (stereo not shown) [2c, 1-thiocarbamoyl-5-(4-chlorophenyl)-3-phenyl-4,5-dihydro-1H-Pyrazole]",cell cycle progression of 5637 cells,5637 cells,inhibited cell cycle progression
"COc1ccc(-c2cc(-c3cc(OC)c(OC)c(OC)c3)n(-c3ccc(Cl)cc3)n2)cc1 [4c, 1-(4-chlorophenyl)-3-(4-methoxyphenyl)-5-(3,4,5-trimethoxyphenyl)-1H-Pyrazole]",IC50,AGO1522 cells; [6],25.2 ± 0.88 µM
same,IC50,AGO1522 cells; [7],20.9 ± 0.92 µM
same,IC50,MDA-MB-468 cells [1]; [8],28.8 ± 0.98 µM
same,IC50,MDA-MB-468 cells [1]; [9],12.4 ± 0.79 µM
"COc1cc(C2CC(c3ccccc3)=NN2c2ccc(Cl)cc2)cc(OC)c1OC (stereo not shown) [3c, 1-(4-chlorophenyl)-3-phenyl-5-(3,4,5-trimethoxyphenyl)-4,5-dihydro-1H-Pyrazole]",IC50,AGO1522 cells; [6],24.1 ± 0.65 µM
same,IC50,AGO1522 cells; [7],17.7 ± 0.93 µM
same,IC50,MDA-MB-468 cells [1]; [8],58.6 ± 0.82 µM
same,IC50,MDA-MB-468 cells [1]; [9],19.9 ± 1.12 µM
"COc1ccc(-c2cc(-c3cc(OC)c(OC)c(OC)c3)n(-c3ccc(C)cc3)n2)cc1 [4b, 3-(4-methoxyphenyl)-1-(p-tolyl)-5-(3,4,5-trimethoxyphenyl)-1H-Pyrazole]",IC50,AGO1522 cells; [6],34.6 ± 0.89 µM
same,IC50,AGO1522 cells; [7],27 ± 0.79 µM
same,IC50,MDA-MB-468 cells [1]; [8],58.2 ± 1.35 µM
same,IC50,MDA-MB-468 cells [1]; [9],12 ± 0.94 µM
"NC(=S)N1N=C(c2ccccc2)CC1c1ccccc1 (stereo not shown) [2a, 1-thiocarbamoyl-3,5-diphenyl-4,5-dihydro-1H-Pyrazole]",cell cycle progression of 5637 cells,5637 cells,inhibited cell cycle progression
"COc1ccc(C2=NN(c3ccc(Cl)cc3)C(c3cc(OC)c(OC)c(OC)c3)C2)cc1 (stereo not shown) [3g, 1-(4-chlorophenyl)-3-(4-methoxyphenyl)-5-(3,4,5-trimethoxyphenyl)-4,5-dihydro-1HPyrazole]",IC50,AGO1522 cells; [6],43.3 ± 0.96 µM
same,IC50,AGO1522 cells; [7],34 ± 1.92 µM
same,IC50,MDA-MB-468 cells [1]; [8],25.8 ± 0.91 µM
same,IC50,MDA-MB-468 cells [1]; [9],8.5 ± 0.89 µM
"COc1ccc(C2=NN(c3ccccc3)C(c3cc(OC)c(OC)c(OC)c3)C2)cc1 (stereo not shown) [3e, 3-(4-methoxyphenyl)-1-phenyl-5-(3,4,5-trimethoxyphenyl)-4,5-dihydro-1H-Pyrazole]",IC50,AGO1522 cells; [6],42.8 ± 0.98 µM
same,IC50,AGO1522 cells; [7],19.9 ± 0.99 µM
same,IC50,MDA-MB-468 cells [1]; [8],21.3 ± 0.85 µM
same,IC50,MDA-MB-468 cells [1]; [9],10.8 ± 0.93 µM
"COc1ccc(C2=NN(c3ccc(C)cc3)C(c3cc(OC)c(OC)c(OC)c3)C2)cc1 (stereo not shown) [3f, 3-(4-methoxyphenyl)-1-(p-tolyl)-5-(3,4,5-trimethoxyphenyl)-4,5-dihydro-1H-Pyrazole]",G1 cell fraction,MDA-MB-468 cells [2],50.52%
same,G2 cell fraction,MDA-MB-468 cells [2],6.28%
same,S phase cell fraction,MDA-MB-468 cells [2],35% and 35.01%
same,Sub-G1 cell fraction,MDA-MB-468 cells [2],8.12%
same,Super-G2 cell fraction,MDA-MB-468 cells [2],0.07%
same,cell cycle effect,MDA-MB-468 cells [2],induced cell cycle arrest in S phase
same,Sub-G1 cell fraction,MDA-MB-468 cells [2]; as worded in text,8.12%
same,apoptosis value,MDA-MB-468 cells [3],38%
same,caspase-3 activity,[4],significantly increased
same,intracellular ROS level,MDA-MB-468 cells [5],ascending trend
same,IC50,AGO1522 cells; [6],28.7 ± 1.2 µM
same,IC50,AGO1522 cells; [7],20.3 ± 0.83 µM
same,IC50,"MDA-MB-468 cells [1]; 48 h treatment, read-out: IC50, MDA-MB-468, 48 hours",6.45 ± 0.84 µM
same,IC50,MDA-MB-468 cells [1]; [8],15 ± 1.09 µM
same,IC50,MDA-MB-468 cells [1]; [9],6.4 µM
"COc1cc(C2CC(c3ccccc3)=NN2c2ccccc2)cc(OC)c1OC (stereo not shown) [3a, 1,3-diphenyl-5-(3,4,5-trimethoxyphenyl)-4,5-dihydro-1H-Pyrazole]",IC50,AGO1522 cells; [6],28.8 ± 0.95 µM
same,IC50,AGO1522 cells; [7],19.9 ± 0.83 µM
same,IC50,MDA-MB-468 cells [1]; [8],25 µM
same,IC50,MDA-MB-468 cells [1]; [9],6.41 ± 1.1 µM
